Among the data in patent publication US20220119411A1, “IMMUNOMODULATORS, COMPOSITIONS AND METHODS THEREOF” (BETTA PHARMACEUTICALS CO., LTD, priority 2018, published 2022) are IC50 values, retold here.

A value given as a limit tells only on which side of the number the result lay.

In this experiment the target is T1, PD-1/PD-L1 protein/protein interaction (Homo sapiens, UniProt Q9NZQ7).
T1 construct: Recombinant human PD-L1 protein (19-238) with a His-tag at the C-terminus; purchased AcroBiosystems PD1-H5229 (PD-L1); PD1-H5257 (PD-1)
T1 sequence (Q9NZQ7 19-238): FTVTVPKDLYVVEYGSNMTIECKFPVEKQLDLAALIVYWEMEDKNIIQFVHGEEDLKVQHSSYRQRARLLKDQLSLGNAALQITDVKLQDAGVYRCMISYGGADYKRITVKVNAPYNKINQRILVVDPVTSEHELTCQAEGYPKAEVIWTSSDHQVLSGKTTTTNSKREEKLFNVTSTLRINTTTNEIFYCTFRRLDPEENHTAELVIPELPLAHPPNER
The experiment in a line: PD-1/PD-L1 homogenous time-resolved fluorescence (HTRF) binding assay. To be noted: recombinant human PD-L1 (19-238)-His 10 nM, human PD-1 (25-167)-Fc 3 nM, 25° C., PBS pH 7.4. As for the experimental part: Resolved Fluorescence (HTRF) Binding Assay
The assays were conducted in a standard black 384-well polystyrene plate with a final volume of 20 μL. Inhibitors were first serially diluted in DMSO and then added to the plate wells before the addition of other reaction components. The final concentration of DMSO in the assay was 1%. The assays were carried out at 25° C. in the PBS buffer (pH 7.4) with 0.05% Tween-20 and 0.1% BSA. Recombinant human PD-L1 protein (19-238) with a His-tag at the C-terminus was purchased from AcroBiosy stems (PD1-H5229). Recombinant human PD-1 protein (25-167) with Fc tag at the C-terminus was also purchased from AcroBiosystems (PD1-H5257). PD-L1 and PD-1 proteins were diluted in the assay buffer and 10 μL was added to the plate well. Plates were centrifuged and proteins were preincubated with inhibitors for 40 min. The incubation was followed by the addition of 10 μL of HTRF detection buffer supplemented with Europium cryptate-labeled anti-human IgG (PerkinElmer-AD0212) specific for Fc and anti-His antibody conjugated to SureLight®—Allophycocyanin (APC, PerkinElmer-AD0059H). After centrifugation, the plate was incubated at 25° C. for 60 min. Before reading on a PHERAstar FS plate reader (665 nm/620 nm ratio). Final concentrations in the assay were—3 nM PD1, 10 nM PD-L1, 1 nM europium anti-human IgG and 20 nM anti-His-Allophycocyanin. IC50 determination was performed by fitting the curve of percent control activity versus the log of the inhibitor concentration using the GraphPad Prism 5.0 software.
Data obtained for the Example compounds using the PD-1/PD-L1 homogenous time-resolved fluorescence (HTRF) binding assay described in Example A is provided in Table 2.
As to `CN1CCc2c(-c3cccc4c3CCN4C(=O)c3nc4c(s3)CN(CC(=O)O)CC4)cccc21` [Example 1, 2-(2-(1′-methyl-[4,4′-biindoline]-1-carbonyl)-6,7-dihydrothiazolo[5,4-c]pyridin-5(4H)-yl)acetic acid], the IC50 fell in the range of 25 to 100 nM.
On to `CC(=O)N1CCc2c(-c3cccc4c3CCN4C(=O)c3nc4c(s3)CN(CC(=O)O)CC4)cccc21` [Example 2, 2-(2-(1′-acetyl-[4,4′-biindoline]-1-carbonyl)-6,7-dihydrothiazolo[5,4-c]pyridin-5(4H)-yl)acetic acid], for which the IC50 is at most 25 nM.
With `COc1cccc(-c2cccc3c2CCN3C(=O)c2nc3c(s2)CN(CC(=O)O)CC3)c1` [Example 3, 2-(2-(4-(3-methoxyphenyl)indoline-1-carbonyl)-6,7-dihydrothiazolo[5,4-c]pyridin-5(4H)-yl)acetic acid], the IC50 was at most 25 nM.
In the case of `O=C(O)CN1CCc2nc(C(=O)N3CCc4c(-c5ccccc5)cccc43)sc2C1` [Example 4, 2-(2-(4-phenylindoline-1-carbonyl)-6,7-dihydrothiazolo[5,4-c]pyridin-5(4H)-yl)acetic acid] it was at most 25 nM.
For the molecule `Cc1ccccc1-c1cccc2c1CCN2C(=O)c1nc2c(s1)CN(CC(=O)O)CC2` [Example 5, 2-(2-(4-(o-tolyl)indoline-1-carbonyl)-6,7-dihydrothiazolo[5,4-c]pyridin-5(4H)-yl)acetic acid], the IC50 was 25 to 100 nM.
In the case of `O=C(O)CN1CCc2nc(C(=O)N3CCc4c(-c5cccc6c5CCN6CCCN5CCOCC5)cccc43)sc2C1` [Example 6, 2-(2-(1′-(3-morpholinopropyl)-[4,4′-biindoline]-1-carbonyl)-6,7-dihydrothiazolo[5,4-c]pyridin-5(4H)-yl)acetic acid] it was at most 25 nM; in that of `O=C(O)CN1CCc2nc(C(=O)N3CCc4c(-c5cccc(OCCCN6CCC(O)C6)c5)cccc43)sc2C1` (stereo not drawn) [Example 7, 2-(2-(4-(3-(3-(3-hydroxypyrrolidin-1-yl)propoxy)phenyl)indoline-1-carbonyl)-6,7-dihydrothiazolo[5,4-c]pyridin-5(4H)-yl)acetic acid], at most 25 nM; in that of `O=C(O)CN1CCc2nc(C(=O)N3CCc4c(-c5cccc(OCCN6CCC(O)C6)c5)cccc43)sc2C1` (stereo not drawn) [Example 8, 2-(2-(4-(3-(2-(3-hydroxypyrrolidin-1-yl)ethoxy)phenyl)indoline-1-carbonyl)-6,7-dihydrothiazolo[5,4-c]pyridin-5(4H)-yl)acetic acid], at most 25 nM.
The same measure for `O=C(O)CN1CCc2nc(C(=O)N3CCc4c(-c5cccc(OCCCCN6CCC(O)C6)c5)cccc43)sc2C1` (stereo not drawn) [Example 9, 2-(2-(4-(3-(4-(3-hydroxypyrrolidin-1-yl)butoxy)phenyl)indoline-1-carbonyl)-6,7-dihydrothiazolo[5,4-c]pyridin-5(4H)-yl)acetic acid]: at most 25 nM.
For the molecule `O=C(O)CN1CCc2nc(C(=O)N3CCc4c(-c5cccc(OCCCN6CCC(O)C6)c5)cccc43)sc2C1` (stereo not drawn) [Example 10, 2-(2-(4-(3-(3-(3-hydroxypyrrolidin-1-yl)propoxy)phenyl)indoline-1-carbonyl)-6,7-dihydrothiazolo[5,4-c]pyridin-5(4H)-yl)acetic acid], the IC50 was at most 25 nM.
Take `O=C(O)CN1CCc2nc(C(=O)N3CCc4c(-c5cccc6c5CCN6CCCN5CCC(O)C5)cccc43)sc2C1` (stereo not drawn) [Example 11, 2-(2-(1′-(3-(3-hydroxypyrrolidin-1-yl)propyl)-[4,4′-biindoline]-1-carbonyl)-6,7-dihydrothiazolo[5,4-c]pyridin-5(4H)-yl)acetic acid]: the IC50 was at most 25 nM.
For the molecule `O=C(O)CN1CCc2nc(C(=O)N3CCc4c(-c5cccc6c5CCN6CCN5CCC(O)C5)cccc43)sc2C1` (stereo not drawn) [Example 12, 2-(2-(1′-(2-(3-hydroxypyrrolidin-1-yl)ethyl)-[4,4′-biindoline]-1-carbonyl)-6,7-dihydrothiazolo[5,4-c]pyridin-5(4H)-yl)acetic acid], the IC50 was at most 25 nM.
The same measure for `Cc1c(NC(=O)CCN2CCC(O)C2)cccc1-c1cccc2c1CCN2C(=O)c1nc2c(s1)CN(CC(=O)O)CC2` (stereo not drawn) [Example 13, 2-(2-(4-(3-(3-(3-hydroxypyrrolidin-1-yl)propanamido)-2-methylphenyl)indoline-1-carbonyl)-6,7-dihydrothiazolo[5,4-c]pyridin-5(4H)-yl)acetic acid]: at most 25 nM; for `O=C(O)CN1CCc2nc(C(=O)N3CCc4c(-c5cccc(NC(=O)CCN6CCC(O)C6)c5)cccc43)sc2C1` (stereo not drawn) [Example 14, 2-(2-(4-(3-(3-(3-hydroxypyrrolidin-1-yl)propanamido)phenyl)indoline-1-carbonyl)-6,7-dihydrothiazolo[5,4-c]pyridin-5(4H)-yl)acetic acid]: at most 25 nM.
As to `O=C(O)CN1CCc2nc(C(=O)N3CCc4c(-c5cccc(OCCCN6CCOCC6)c5)cccc43)sc2C1` [Example 15, 2-(2-(4-(3-(3-morpholinopropoxy)phenyl)indoline-1-carbonyl)-6,7-dihydrothiazolo[5,4-c]pyridin-5(4H)-yl)acetic acid], the IC50 was at most 25 nM.
`O=C(O)CN1CCc2nc(C(=O)N3CCc4c(-c5cccc(CCCCN6CCOCC6)c5)cccc43)sc2C1` [Example 16, 2-(2-(4-(3-(4-morpholinobutyl)phenyl)indoline-1-carbonyl)-6,7-dihydrothiazolo[5,4-c]pyridin-5(4H)-yl)acetic acid]: the IC50 was at most 25 nM.
On to `O=C(O)CN1CCc2nc(C(=O)N3CCc4c(-c5cccc(CCCN6CCOCC6)c5)cccc43)sc2C1` [Example 17, 2-(2-(4-(3-(3-morpholinopropyl)phenyl)indoline-1-carbonyl)-6,7-dihydrothiazolo[5,4-c]pyridin-5(4H)-yl)acetic acid], for which the IC50 is at most 25 nM.
Take `O=C(O)CN1CCc2nc(C(=O)N3CCc4c(-c5cccc(/C=C/CN6CCOCC6)c5)cccc43)sc2C1` [Example 18, (E)-2-(2-(4-(3-(3-morpholinoprop-1-en-1-yl)phenyl)indoline-1-carbonyl)-6,7-dihydrothiazolo[5,4-c]pyridin-5(4H)-yl)acetic acid]: the IC50 was at most 25 nM.
Turning to `O=C(O)CN1CCc2nc(C(=O)N3CCc4c(-c5cccc(CCN6CCOCC6)c5)cccc43)sc2C1` [Example 19, 2-(2-(4-(3-(2-morpholinoethyl)phenyl)indoline-1-carbonyl)-6,7-dihydrothiazolo[5,4-c]pyridin-5(4H)-yl)acetic acid], the IC50 is at most 25 nM.
On to `Cc1c(NC(=O)CCN2CCC(O)C2)cccc1-c1cccc2c1CCN2C(=O)c1nc2c(n1C)CN(CC(=O)O)CC2` (stereo not drawn) [Example 20, 2-(2-(4-(3-(3-(3-hydroxypyrrolidin-1-yl)propanamido)-2-methylphenyl)indoline-1-carbonyl)-3-methyl-3,4,6,7-tetrahydro-5H-imidazo[4,5-c]pyridin-5-yl)acetic acid], for which the IC50 was at most 25 nM.
As for `Cc1c(OCCCN2CCOCC2)cccc1-c1cccc2c1CCN2C(=O)c1nc2c(n1C)CN(CC(=O)O)CC2` [Example 21, 2-(3-methyl-2-(4-(2-methyl-3-(3-morpholinopropoxy)phenyl)indoline-1-carbonyl)-3,4,6,7-tetrahydro-5H-imidazo[4,5-c]pyridin-5-yl)acetic acid], the IC50 was at most 25 nM.
